Measured values: ChEMBL document CHEMBL1151058, “Synthesis and structure-activity relationships of novel THF 1-methylcarbapenems” (1997)
Values after ≈ are worked out from the molar mass of the structure shown.

Assays:
Format in all cases: functional
[1] = tested on: Escherichia coli; test: Effective single subcutaneous dose required for inhibition of Escherichia coli in mice
[2] = tested on: Escherichia coli; test: Effective single oral dose required for inhibition of Escherichia coli in mice
[3] = species on record: Sus scrofa; test: Relative hydrolysis was measured by hog renal dehydropeptidase (DHP).
[4] = tested on: Citrobacter freundii; test: In vitro minimum inhibitory concentration required against Citrobacter freundii GC 2211 strain
[5] = tested on: Enterococcus faecalis; test: In vitro minimum inhibitory concentration required against Enterococcus faecalis GC 842 strain
[6] = tested on: Enterococcus faecium; test: In vitro minimum inhibitory concentration required against Enterococcus faecium GC 1182 strain
[7] = tested on: Morganella morganii; test: In vitro minimum inhibitory concentration required against Morganella morganii GC 2213 strain
[8] = tested on: Escherichia coli; test: In vitro minimum inhibitory concentration required against Escherichia coli GC 2205 strain
[9] = tested on: Stenotrophomonas maltophilia; test: In vitro minimum inhibitory concentration required against Xanthomonas maltophilia GC 562 strain
[10] = tested on: Pseudomonas aeruginosa; test: In vitro minimum inhibitory concentration required against Pseudomonas aeruginosa GC 1544 oprD- strain
[11] = tested on: Pseudomonas aeruginosa; test: In vitro minimum inhibitory concentration required against Pseudomonas aeruginosa ATCC 27853 strain
[12] = tested on: Staphylococcus aureus; test: In vitro minimum inhibitory concentration required against Staphylococcus aureus ATCC 29213 strain
[13] = tested on: Acinetobacter calcoaceticus; test: In vitro minimum inhibitory concentration required against Acinetobacter calcoaceticus GC 756 strain
[14] = tested on: Escherichia coli; test: In vitro minimum inhibitory concentration required against Escherichia coli ATCC 25922 strain
[15] = tested on: Escherichia coli; test: In vitro minimum inhibitory concentration required against Escherichia coli GC 1792 strain
[16] = tested on: Enterobacter cloacae; test: In vitro minimum inhibitory concentration required against Enterobacter cloacae GC 2209 strain
[17] = tested on: Staphylococcus aureus; test: In vitro minimum inhibitory concentration required against Staphylococcus aureus GC 2220 MRSA strain
[18] = Escherichia coli, sc, read-out: ED50
[19] = Escherichia coli, po, read-out: ED50
[20] = Enterococcus faecalis, read-out: MIC
[21] = Enterococcus faecium, read-out: MIC
[22] = Acinetobacter calcoaceticus, read-out: MIC

Structure (SMILES) | Relative hydrolysis [3] | MIC [4] [µg/mL] | MIC [5, 20] [µg/mL] | MIC [6, 21] [µg/mL] | MIC [7] [µg/mL] | MIC [8] [µg/mL] | MIC [9] [µg/mL] | MIC [10] [µg/mL] | MIC [11] [µg/mL] | MIC [12] [µg/mL] | MIC [13, 22] [µg/mL] | MIC [14] [µg/mL] | MIC [15] [µg/mL] | MIC [16] [µg/mL] | MIC [17] [µg/mL] | other results
C[C@@H](O)[C@H]1C(=O)N2C(C(=O)O)=C(S[C@@H]3CCO[C@@H]3CN)[C@H](C)[C@H]12 | 8.5 |  |  |  |  |  |  |  |  |  |  |  |  |  |  | ED50 [1, 18]: 0.34 mg/kg; ED50 [2, 19]: 3.8 mg/kg
C[C@H]1C(S[C@H]2CO[C@@H](CN)C2)=C(C(=O)O)N2C(=O)[C@H]([C@@H](C)O)C12 (some centres undefined) | 10 | 0.12 (≈ 0.35 µM) | 4 (≈ 11.7 µM) | > 128 | 0.5 (≈ 1.46 µM) | ≤ 0.06 | > 128 | 32 (≈ 93.5 µM) | 16 (≈ 46.7 µM) | ≤ 0.06 | 2 (≈ 5.84 µM) | ≤ 0.06 | ≤ 0.06 | ≤ 0.06 | 8 (≈ 23.4 µM) | 
C[C@@H](O)[C@H]1C(=O)N2C(C(=O)O)=C(S[C@@H]3CN[C@H](C(=O)N(C)C)C3)[C@H](C)[C@H]12 [MEROPENEM] | 28 | ≤ 0.06 | 2 (≈ 5.22 µM) | > 128 | ≤ 0.06 | ≤ 0.06 | > 128 | 4 (≈ 10.4 µM) | 0.25 (≈ 0.652 µM) | ≤ 0.06 | 0.5 (≈ 1.3 µM) | ≤ 0.06 | ≤ 0.06 | ≤ 0.06 | 8 (≈ 20.9 µM) | 
C[C@@H](O)[C@H]1C(=O)N2C(C(=O)O)=C(SCCNC=N)C[C@H]12 [IMIPENEM ANHYDROUS] | 100 |  |  |  |  |  |  |  |  | ≤ 0.06 |  |  | ≤ 0.06 | ≤ 0.06 |  | ED50 [1, 18]: 0.67 mg/kg; ED50 [2, 19]: 79 mg/kg
C[C@H]1C(S[C@@H]2COC[C@H]2CN)=C(C(=O)O)N2C(=O)[C@H]([C@@H](C)O)C12 (some centres undefined) | 39 | 1 (≈ 2.92 µM) | 8 (≈ 23.4 µM) | > 128 | 4 (≈ 11.7 µM) | 0.25 (≈ 0.73 µM) | > 128 | 64 (≈ 187 µM) | 32 (≈ 93.5 µM) | 0.12 (≈ 0.35 µM) | 16 (≈ 46.7 µM) | 0.25 (≈ 0.73 µM) | 0.25 (≈ 0.73 µM) | 0.25 (≈ 0.73 µM) | 16 (≈ 46.7 µM) | 
C[C@H]1C(S[C@H]2COC[C@H]2CN)=C(C(=O)O)N2C(=O)[C@H]([C@@H](C)O)C12 (some centres undefined) | < 1 |  |  |  |  |  |  |  |  | ≤ 0.06 |  | ≤ 0.06 | ≤ 0.06 | ≤ 0.06 |  | 
C[C@H]1C(S[C@H]2CCO[C@@H]2CN)=C(C(=O)O)N2C(=O)[C@H]([C@@H](C)O)C12 (some centres undefined) | 18 | 1 (≈ 2.92 µM) | 8 (≈ 23.4 µM) | > 64 | 2 (≈ 5.84 µM) | 0.25 (≈ 0.73 µM) | > 64 | 32 (≈ 93.5 µM) | 16 (≈ 46.7 µM) | 0.06 (≈ 0.175 µM) |  | 0.5 (≈ 1.46 µM) | 0.5 (≈ 1.46 µM) | 0.5 (≈ 1.46 µM) | 4 (≈ 11.7 µM) | 
C[C@H]1C(S[C@H]2CO[C@H](CN)C2)=C(C(=O)O)N2C(=O)[C@H]([C@@H](C)O)C12 (some centres undefined) |  | ≤ 0.06 | 2 (≈ 5.84 µM) | > 128 | 0.25 (≈ 0.73 µM) | ≤ 0.06 | > 128 | 8 (≈ 23.4 µM) | 2 (≈ 5.84 µM) | ≤ 0.06 | 1 (≈ 2.92 µM) | ≤ 0.06 | ≤ 0.06 | ≤ 0.06 | 8 (≈ 23.4 µM) | 
C[C@H]1C(SC2COC(CN)C2)=C(C(=O)O)N2C(=O)[C@H]([C@@H](C)O)C12 (stereo in doubt; 3b) [listing 2 of 2 here] |  |  |  |  |  |  |  |  |  |  |  |  |  |  |  | MIC [5]: 2 µg/mL (≈ 5.84 µM); MIC [6]: 128 µg/mL (≈ 374 µM); ED50 [1]: 0.28 mg/kg; MIC [13]: 2 µg/mL (≈ 5.84 µM); ED50 [2]: 3.5 mg/kg
C[C@H]1C(S[C@@H]2CO[C@H](CN)C2)=C(C(=O)O)N2C(=O)[C@H]([C@@H](C)O)C12 (some centres undefined) | 7.3 | 0.12 (≈ 0.35 µM) | 4 (≈ 11.7 µM) | 128 (≈ 374 µM) | 0.5 (≈ 1.46 µM) | 0.12 (≈ 0.35 µM) | > 128 | 16 (≈ 46.7 µM) | 8 (≈ 23.4 µM) | ≤ 0.06 | 2 (≈ 5.84 µM) | ≤ 0.06 | ≤ 0.06 | ≤ 0.06 | 4 (≈ 11.7 µM) | 
C[C@H]1C(SC2COC(CN)C2)=C(C(=O)O)N2C(=O)[C@H]([C@@H](C)O)C12 (stereo in doubt; 3a) [listing 2 of 2 here] |  | ≤ 0.06 |  |  |  | ≤ 0.06 |  |  |  | ≤ 0.06 | 1 (≈ 2.92 µM) | ≤ 0.06 | ≤ 0.06 | ≤ 0.06 |  | ED50 [1, 18]: 0.27 mg/kg; ED50 [2, 19]: 3.7 mg/kg
C[C@H]1C(S[C@H]2CCO[C@H]2CN)=C(C(=O)O)N2C(=O)[C@H]([C@@H](C)O)C12 (some centres undefined) | 4.5 | 0.5 (≈ 1.46 µM) | 4 (≈ 11.7 µM) | 128 (≈ 374 µM) | 2 (≈ 5.84 µM) | 0.5 (≈ 1.46 µM) | > 128 | 16 (≈ 46.7 µM) | 4 (≈ 11.7 µM) | 0.12 (≈ 0.35 µM) | 4 (≈ 11.7 µM) | 0.5 (≈ 1.46 µM) | 0.5 (≈ 1.46 µM) | 0.25 (≈ 0.73 µM) | 8 (≈ 23.4 µM) | 

More lines, main results first:

Relative hydrolysis [3] | Structure (SMILES) | MIC [4] [µg/mL] | MIC [5, 20] [µg/mL] | MIC [6, 21] [µg/mL] | MIC [7] [µg/mL] | MIC [8] [µg/mL] | MIC [9] [µg/mL] | MIC [10] [µg/mL] | MIC [11] [µg/mL] | MIC [12] [µg/mL] | MIC [13, 22] [µg/mL] | MIC [14] [µg/mL] | MIC [15] [µg/mL] | MIC [16] [µg/mL] | MIC [17] [µg/mL] | other results
19 | C[C@H]1C(SC2COC(CN)C2)=C(C(=O)O)N2C(=O)[C@H]([C@@H](C)O)C12 (stereo in doubt; 3a) [listing 1 of 2 here] |  |  |  |  |  |  |  |  |  |  |  |  |  |  | 
10 | C[C@H]1C(SC2COC(CN)C2)=C(C(=O)O)N2C(=O)[C@H]([C@@H](C)O)C12 (stereo in doubt; 3b) [listing 1 of 2 here] |  |  |  |  |  |  |  |  |  |  |  |  |  |  | 
< 1 | C[C@H]1C(S[C@@H]2COC[C@@H]2CN)=C(C(=O)O)N2C(=O)[C@H]([C@@H](C)O)C12 (some centres undefined) |  |  |  |  |  |  |  |  |  |  |  |  |  |  | 
37 | C[C@H]1C(S[C@H]2COC[C@@H]2CN)=C(C(=O)O)N2C(=O)[C@H]([C@@H](C)O)C12 (some centres undefined) | 1 (≈ 2.92 µM) | 8 (≈ 23.4 µM) | > 128 | 4 (≈ 11.7 µM) | 0.5 (≈ 1.46 µM) | > 128 | 64 (≈ 187 µM) | 16 (≈ 46.7 µM) | 0.12 (≈ 0.35 µM) | 8 (≈ 23.4 µM) | 0.5 (≈ 1.46 µM) | 0.5 (≈ 1.46 µM) | 0.5 (≈ 1.46 µM) | 16 (≈ 46.7 µM) | 
